Results from PubChem BioAssay AID256 (DTP/NCI, 2004).
“And” between values parts separate entries of the source, which are not always exact repeats. Equal values may be shown once. Inconclusive results and toxic doses are left out. The calls were made as follows: active = survival T/C of 150% or more; inactive = T/C below 125% in these data.

System: CD2F1 mice, L1210 leukemia ip, survival T/C
Experiment: NCI In Vivo Anticancer Drug Screen. Data for tumor model L1210 Leukemia (intraperitoneal) in CD2F1 (CDF1) mice
Settings: endpoint: mean survival time, higher = longer survival
Summary of the method: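 Vehicle-treated tumor-bearing mice served as controls (C) for compound-treated mice (T). Reported figure is T divided by C.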

[1] = dose: 100.0 mg/kg/injection, schedule: Q01DX009 (ip), vehicle: saline with Tween-80
[2] = dose: 200.0 mg/kg/injection, schedule: Q01DX009 (ip), vehicle: saline with Tween-80

Measured: T/C

C=CC(=O)NCNC(=O)C=C
inactive: dose: 6.25 mg/kg/injection, schedule: Q01DX009 (ip), vehicle: saline 97 % of control | dose: 12.5 mg/kg/injection, schedule: Q01DX009 (ip), vehicle: saline 101 % of control and 102 % of control | dose: 25.0 mg/kg/injection, schedule: Q01DX009 (ip), vehicle: saline with Tween-80 117 % of control | dose: 25.0 mg/kg/injection, schedule: Q01DX009 (ip), vehicle: saline 97 % of control and 102 % of control | dose: 50.0 mg/kg/injection, schedule: Q01DX009 (ip), vehicle: saline with Tween-80 114 % of control | dose: 50.0 mg/kg/injection, schedule: Q01DX009 (ip), vehicle: saline 117 % of control and 104 % of control | dose: 100.0 mg/kg/injection, schedule: Q01DX009 (ip), vehicle: saline 117 % of control and 98 % of control | dose: 200.0 mg/kg/injection, schedule: Q01DX009 (ip), vehicle: saline 96 % of control

Nc1nc(N)nc(Nc2ccc(Sc3ccc(Nc4nc(N)nc(N)n4)cc3)cc2)n1
inactive: dose: 180.0 mg/kg/injection, schedule: Q01DX Z (ip), vehicle: saline 103 % of control

CC(=O)NS(=O)(=O)c1ccc(N=Cc2ccc3c(c2)OCO3)cc1
inactive: [1] 100 % of control | [2] 95 % of control | dose: 400.0 mg/kg/injection, schedule: Q01DX009 (ip), vehicle: saline with Tween-80 94 % of control

Cc1c(N)nc(C(CC(N)=O)NCC(N)C(N)=O)nc1C(=O)NC(C(=O)NC(C)C(O)CC(=O)NC(C(=O)NC(OC1OC(C)C(N)C(O)C1O)C(O)c1nc(-c2nc(C(=O)NCCCC(N)CC(=O)NCCCNCCCCN)cs2)cs1)C(C)O)C(OC1OC(CO)C(O)C(O)C1OC1OC(CO)C(O)C(OC(N)=O)C1O)c1cnc[nH]1 (stereo unspecified)
inactive: dose: 1.0 mg/kg/injection, schedule: Q01DX009 (ip), vehicle: saline 103 % of control | dose: 2.0 mg/kg/injection, schedule: Q01DX009 (ip), vehicle: saline 101 % of control | dose: 4.0 mg/kg/injection, schedule: Q01DX009 (ip), vehicle: saline 104 % of control | dose: 8.0 mg/kg/injection, schedule: Q01DX009 (ip), vehicle: saline 104 % of control | dose: 16.0 mg/kg/injection, schedule: Q01DX009 (ip), vehicle: saline 86 % of control

CC(C)CC(Nc1sc([N+](=O)[O-])cc1[N+](=O)[O-])C(=O)O (stereo unspecified)
inactive: dose: 100.0 mg/kg/injection, schedule: Q01DX001 (ip), vehicle: saline with Tween-80 105 % of control | dose: 200.0 mg/kg/injection, schedule: Q01DX001 (ip), vehicle: saline with Tween-80 102 % of control | dose: 400.0 mg/kg/injection, schedule: Q01DX001 (ip), vehicle: saline with Tween-80 107 % of control

COC(=O)C(c1ccccc1)C(c1ccccc1)c1ccccc1 (stereo unspecified)
inactive: dose: 100.0 mg/kg/injection, schedule: Q04DX002 (ip), vehicle: saline with Tween-80 95 % of control | dose: 200.0 mg/kg/injection, schedule: Q04DX002 (ip), vehicle: saline with Tween-80 87 % of control

CCOC(=O)C(O)(CC)CCC(C)C (stereo unspecified)
inactive: dose: 100.0 mg/kg/injection, schedule: Q04DX003 (ip), vehicle: saline with Tween-80 105 % of control | dose: 200.0 mg/kg/injection, schedule: Q04DX003 (ip), vehicle: saline with Tween-80 86 % of control

CC1(CC(C)(C)c2ccccc2)OCCO1
inactive: dose: 25.0 mg/kg/injection, schedule: Q01DX009 (ip), vehicle: Klucel (hydroxypropylcellulose) (HPC) 100 % of control | dose: 50.0 mg/kg/injection, schedule: Q01DX009 (ip), vehicle: Klucel (hydroxypropylcellulose) (HPC) 98 % of control | dose: 100.0 mg/kg/injection, schedule: Q01DX009 (ip), vehicle: Klucel (hydroxypropylcellulose) (HPC) 100 % of control | dose: 200.0 mg/kg/injection, schedule: Q01DX009 (ip), vehicle: Klucel (hydroxypropylcellulose) (HPC) 102 % of control | dose: 400.0 mg/kg/injection, schedule: Q01DX009 (ip), vehicle: Klucel (hydroxypropylcellulose) (HPC) 100 % of control

NC(N)=NC(N)=Nc1ccc(Cl)cc1
inactive: [1] 104 % of control | [2] 106 % of control
